“Also recorded” adds a separate entry of the source. Where two headings read alike, the source gives them in different places. Non-standard residues stand in square brackets, D forms with d. Residues, ends and D or L forms follow the SMILES beside them. No end group written: not given here.
Experiments:
growth hormone secretion = test: GHRP induced growth hormone secretion, intravenous administration (Rat IV); type: in vivo; conditions: Table II; iv tail vein injection, anesthetized weanling female rats, serum GH 10 min after injection
Outline: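 Female Sprague Dawley rats (24-30 days, 50-90 g) under intraperitoneal pentobarbitone received graded intravenous tail-vein peptide doses in pH 5.0 sodium acetate/mannitol buffer 20 min post-anaesthesia. Blood by cardiac puncture 10 min after dosing; serum GH measured by rat GH ELISA in duplicate.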

[1] = oral; cited from earlier work
rat pituitary cells [2] = target: T1, rat pituitary cells (Rattus norvegicus, UniProt O08725)
T1 sequence (O08725 whole entry): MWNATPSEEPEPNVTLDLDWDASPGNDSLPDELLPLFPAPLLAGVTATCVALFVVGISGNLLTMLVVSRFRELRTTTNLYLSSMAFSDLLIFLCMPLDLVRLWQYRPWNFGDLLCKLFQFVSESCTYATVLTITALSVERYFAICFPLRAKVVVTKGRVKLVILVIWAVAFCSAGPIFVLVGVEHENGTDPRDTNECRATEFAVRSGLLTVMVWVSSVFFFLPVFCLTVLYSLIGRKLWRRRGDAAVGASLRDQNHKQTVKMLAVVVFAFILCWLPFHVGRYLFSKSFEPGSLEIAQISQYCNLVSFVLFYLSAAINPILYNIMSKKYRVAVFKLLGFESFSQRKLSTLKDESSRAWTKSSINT
Outline: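 Primary rat anterior pituitary cells, cultured three days in DME low glucose/10% FBS, were washed, pre-incubated twice for 15 min, then challenged 15 min with test compounds (DMSO ≤0.1%) at 37 °C. Released GH was measured by two-site ELISA; EC50 came from 4-parameter fits, mean of three to four independent determinations.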

rat pituitary cells [3] = target: T1, rat pituitary cells; test: Rat “pit” cell challenges: combinations with GHRP-6/GHRH, desensitization, somatostatin suppression, GHRP antagonist; type: cell-based
Description: Dispersion: Adult female Sprague-Dawley (160-180 g., Charles River) rats were group-caged in a 12:12 light:dark cycle with food and water available ad libitum. Pituitaries from ten rats were removed, the posterior pituitary discarded and the anterior pituitary placed in Hanks' Balanced Salt Solution (HBSS: without calcium chloride, w/o magnesium chloride, w/o magnesium sulfate; Gibco) containing 20 mM HEPES (Gibco) and 100 U/ml penicillin streptomycin (PS: JRH Biosciences). Under sterile conditions, pituitaries were rinsed twice then minced into small fragments with a razor blade. Fragments were resuspended in 5 ml of HBSS/HEPES containing 20 mg collagenase (Serva 17449) and 200 ml of 1 mg/ml DNase (Sigma) for a 40 min. incubation in a 37° C. gyrotory water bath shaker (New Brunswick Scientific Model G76; setting 10). After the incubation, fragments were triturated to yield small clumps and single cells. The cells were centrifuged 1000× g for 5 min, resuspended, counted and plated at a final cell concentration of 100,000 cells/ml. Incubation media was DME low glucose media w/NaHCO3 (Gibco) containing 20 mM hepes, 100 U/ml PS and 10% FBS (Hyclone A-111-L). Cells were plated at 0.5 ml per well in 48 well plates (Falcon) and incubated at 37° C. in 5% C02 for three days. […] The highest concentration of DMSO in media was 0.1%. Stock solutions (1 mM) of rat GHRH, somatostatin (Sigma) and GHRP antagonist HwkWfK were made fresh in media and diluted appropriately. The media used in all challenges and washing steps was DME low glucose with 20 mM Hepes, 100 U/ml PS, 10% FBS. Media was warmed to 37° C. and gassed by placing it into the incubator prior to challenge. On day three, the media was discarded and fresh media (approximately 1 ml) added for the first of three washes. After the last wash, the plate was placed back in the incubator for a 15 min pre-incubation. Then cells were washed 2× (with warmed and gassed media) and fresh 0.5 ml media were added for the second 15 min. pre-incubation. After the second pre-incubation cells were washed 2× as above and 0.5 ml of control and test solutions were added for a final 15 min incubation. After this incubation, the media were removed for subsequent GH ELISA. GH ELISA: A two-site ELISA was used to determine rat GH concentration in the media. Briefly, goat anti-rat GH antibody (lot#19164-20) was used to coat Nunc immunoplates overnight. After blocking and washing, standard (rat GH reference preparation: Parlow) and challenge media is diluted 1:20 prior to GH assay were added for a 1 hr room temperature incubation. STATISTICS: The mean for each group was determined and analyzed by one-way analysis of variance with a post-hoc Student-Newman-Keuls. Significance is defined as P<0.05. The EC50 was calculated using a 4-parameter curve-fit program (Kaleidagraph). Three to four independent EC50s were used to derive the mean and SEM.

[4] = Combination GHRP and IGF-1 treatment of normal rats (7 days); type: in vivo, rat; conditions: 7 days, twice daily sc injections, normal adult female rats; GHRH 300, GHRPs 50, L-692,585 150 μg/dose
Description: The rats were weighed on the day of surgery and randomized into 12 groups of 5/group using a grouping program.
The GH secretagogues were given by sc. injection twice daily, each dose of 100 μl. […] Recombinant human IGF-1 (rhIGF-1) at 2.5 mg/ml in acetate buffer was loaded into osmotic minipumps (Alza, Palo Alto, model 2ML1, pump rate 10.16 μl/hr for 7 days, fill volume 2086 μl). Other pumps were filled with acetate buffer. […] The delivered dose of rhIGF-1 was therefore 610 μg/day.
The next day the osmotic pumps were inserted into rats. […] All rats not receiving rhIGF-1 containing pumps were implanted with pumps delivering the acetate buffer excipient. […] The treatment groups were;
The rats were sacrificed using carbon dioxide, bled from the heart and organs taken. Serum chemistries were measured by standard automated procedures.

ACTH = ACTH release from pituitary cells (RIA); type: cell-based, rat
Description: Dispersion: Adult female Sprague-Dawley (160-180 g., Charles River) rats were group-caged in a 12:12 light:dark cycle with food and water available ad libitum. Pituitaries from ten rats were removed, the posterior pituitary discarded and the anterior pituitary placed in Hanks' Balanced Salt Solution (HBSS: without calcium chloride, w/o magnesium chloride, w/o magnesium sulfate; Gibco) containing 20 mM HEPES (Gibco) and 100 U/ml penicillin streptomycin (PS: JRH Biosciences). Under sterile conditions, pituitaries were rinsed twice then minced into small fragments with a razor blade. Fragments were resuspended in 5 ml of HBSS/HEPES containing 20 mg collagenase (Serva 17449) and […] of 1 mg/ml DNase (Sigma) for a 40 min. incubation in a 37° C. gyrotory water bath shaker (New Brunswick Scientific Model G76; setting 10). After the incubation, fragments were triturated to yield small clumps and single cells. The cells were centrifuged 1000× g for 5 min, resuspended, counted and plated at a final cell concentration of 100,000 cells/ml. Incubation media was DME low glucose media w/NaHCO3 (Gibco) containing 20 mM hepes, 100 U/ml PS and 10% FBS (Hyclone A-111-L). Cells were plated at 0.5 ml per well in 48 well plates (Falcon) and incubated at 37° C. in 5% C02 for three days. For challenges to determine release of other pituitary hormones cells were plated at 200,000 cells per ml with 2 ml per well of a Swell plate (Corning). Challenge: A (inip)bbFK-NH2 stock (or other GHRP) concentration of 1 mM was made in DMSO and diluted with warmed media approximately 30 min prior to use. The highest concentration of DMSO in media was 0.1%. […] STATISTICS: The mean for each group was determined and analyzed by one-way analysis of variance with a post-hoc Student-Newman-Keuls. […] The EC50 was calculated using a 4-parameter curve-fit program (Kaleidagraph). […] RIA of pituitary hormones: LH, FSH, TSH, and Prolactin were determined with commercially available kits from Amersham, and ACTH levels were determined by a RIA kit from ICN. […]

rat pituitary cell = conditions: cited from earlier work
[5] = read-out: “Pit” Cell EC50, Table II, prior art compounds, GH release, 15 min incubation

## C[C@H](NC(=O)[C@@H](Cc1c[nH]c2ccccc12)NC(=O)[C@@H](N)Cc1c[nH]cn1)C(=O)N[C@@H](Cc1c[nH]c2ccccc12)C(=O)N[C@H](Cc1ccccc1)C(=O)N[C@@H](CCCCN)C(N)=O [GHRP 6, His-D Trp-Ala-Trp-D Phe-Lys-NH2, reference compound] (H-H[dW]AW[dF]K-NH2)
Growth hormone secretion
  Rat IV ED50: 1.0 µg
[1]
  absorbed orally: ~0.3%
Rat pituitary cells [2]; read-out: mean EC50, mean ± SE of independent EC50s
  EC50: 6.2 ± 1.5 nM
Rat pituitary cells [3]; 100 nM
  GH response compared with control: significantly greater than control
  increase in GH levels over control: 3 fold
Rat pituitary cells [3]; GHRP 100 nM plus GHRH 10 or 100 nM
  GH release in combination with GHRH: show synergy with 10 nM GHRH; also recorded: synergistic; also recorded: showed synergy with GHRH
[4]
  body weight gain (in words): significant body weight gain

## CRF: corticotrophin releasing factor (SEEPPISLDLTFHLLREVLEMARAEQLAQQAHSNRKLMEII; ends and bridges not checked; UniProt P06850 154-194, looked up) [reference compound]
ACTH
  rise in ACTH levels: 3 fold

## CC(C)(N)CC(=O)N[C@@H]1CCc2ccccc2N(Cc2ccc(-c3ccccc3-c3nnn[nH]3)cc2)C1=O [L-692,429, reference compound]
Growth hormone secretion
  Rat IV ED50: 100 µg
Rat pituitary cell
  fold less potent than GHRP-6: about 6 fold
Rat pituitary cells [2]; [5]
  EC50: 26.2 nM

## C[C@@H](O)CNC(C)(C)CC(=O)N[C@@H]1CCc2ccccc2N(Cc2ccc(-c3ccccc3-c3nnn[nH]3)cc2)C1=O [L-692,585, reference compound]
Growth hormone secretion
  Rat IV ED50: 10 µg
Rat pituitary cell
  potency in the rat pituitary cell assay: slightly greater than GHRP-6
Rat pituitary cells [2]; [5]
  EC50: 10.6 nM
[4]
  body weight gain (in words): no significant weight gain

From US7094869B2, “Low molecular weight peptidomimetic growth hormone secretagogues” (Genentech, Inc., priority 1994, dated 2006)
